The source of these data is ChEMBL document CHEMBL1137107, “Design, synthesis, and evaluation of hexahydrobenz[f]isoquinolines as a novel class of dopamine 3 receptor ligands” (Bioorg Med Chem Lett, 2004).

SMILES strings stand for the structures.

In assay [1] the target is D(3) dopamine receptor (Rattus norvegicus, UniProt P19020).
Description: Binding affinity towards dopamine D3 receptor in ventral striatal membranes of sprague-dawley rat brain by using [3H]-PD 128907 as radioligand
Assay [2] in a line: Binding affinity towards D1-like dopamine receptor in caudate-putamen membranes of sprague-dawley rat brain by using [3H]-SCH- 23390 as radioligand. In kind it is cell membranes, Membrane.
A short description of assay [3]: Binding affinity towards D2-like dopamine receptor in caudate-putamen membranes of sprague-dawley rat brain by using [3H]spiperone as radioligand. It is filed as cell membranes, Membrane.
For assay [4], the species on record is Rattus norvegicus. The experiment in a line: Ratio of binding affinity for D2-like receptor to that of dopamine D3 receptor.
Assay [5] is filed under the species Rattus norvegicus. Description: Ratio of binding affinity for D1-like receptor to that of dopamine D3 receptor.

D(3) dopamine receptor, sequence (P19020 whole entry): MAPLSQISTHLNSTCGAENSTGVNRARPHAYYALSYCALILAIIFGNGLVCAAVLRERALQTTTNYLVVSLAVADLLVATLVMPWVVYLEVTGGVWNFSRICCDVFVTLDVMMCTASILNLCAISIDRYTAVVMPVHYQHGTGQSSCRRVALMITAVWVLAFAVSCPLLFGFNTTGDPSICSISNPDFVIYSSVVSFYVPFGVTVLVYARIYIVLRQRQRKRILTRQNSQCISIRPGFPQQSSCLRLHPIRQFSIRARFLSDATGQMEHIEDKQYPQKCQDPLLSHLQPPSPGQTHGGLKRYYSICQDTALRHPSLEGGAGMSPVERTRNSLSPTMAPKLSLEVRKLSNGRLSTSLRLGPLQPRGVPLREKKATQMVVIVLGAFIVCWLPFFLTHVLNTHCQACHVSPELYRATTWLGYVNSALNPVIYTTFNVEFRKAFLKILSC

On to `CCN1CCC2=C(CCc3ccccc32)C1`, for which the Ki (commonly a measure of affinity in units of concentration, obtained from inhibition or displacement) in assay [1] was 183 nM.
For the molecule `COc1ccccc1N1CCN(CCCCNC(=O)c2ccc3ccccc3c2)CC1` [BP-897], the figures for the Ki in assay [2] and in assay [3] were 636 nM and 162 nM, respectively.
For the molecule `c1ccc(CCCCN2CCC3=C(CCc4ccccc43)C2)cc1`, the Ki worked out at 696 nM in assay [2], 74 nM in assay [1] and 59 nM in assay [3]. Further, the Selectivity in assay [4] worked out at 1; in assay [5], 9.
Turning to `O=C(NCCCCN1CCC2=C(CCc3ccccc32)C1)c1ccc2ccccc2c1`, the Ki in assay [2] worked out at 993 nM; in assay [1], 6.1 nM; in assay [3], 811 nM. Besides, the Selectivity in assay [4] worked out at 133; in assay [5] it was 163.
For `CCCCN1CCC2=C(CCc3ccccc32)C1`, in that order: 1570 nM, 25 nM, 122 nM, 5 and 62.
For `CCCN1CCC2=C(CCc3ccccc32)C1`, the Ki amounted to 1120 nM in assay [2], 63 nM in assay [1] and 84 nM in assay [3]. Also, the Selectivity in assay [4] was determined as 1; in assay [5] it was 18.
In turn, `c1ccc(CCCN2CCC3=C(CCc4ccccc43)C2)cc1` showed a Ki in assay [1] of 103 nM.
As for `c1ccc(CCN2CCC3=C(CCc4ccccc43)C2)cc1`, the Ki in assay [2] is 819 nM; in assay [1] it was 84 nM; in assay [3], 3290 nM. The Selectivity amounted to 39 in assay [4] and 10 in assay [5].
As for `CCCCCN1CCC2=C(CCc3ccccc32)C1`, the inhibition constant (Ki) in assay [2] was found to be 1060 nM; in assay [1] it was 38 nM; in assay [3] it was 46 nM. The figures for the Selectivity in assay [4] and in assay [5] were 1 and 28, respectively.
